Data: article PMC10581193 (Microbiology Spectrum, 2023)
Like-named read-outs stand apart in the source and are kept apart here.

What was measured:
Y48 = assay type: cell-based, M. tuberculosis
Y198 = assay type: cell-based, M. tuberculosis
Y17 = assay type: cell-based, M. tuberculosis
DprE1 = DprE1 (Mycobacterium tuberculosis, UniProt P9WJF1, Y314H); set-up: species or system M. tuberculosis H37Ra

Nc1ccc(C(=O)O)c(O)c1 [PA, p-aminosalicylic acid]
Drug resistance of clinical isolate (Y48; strain Y48): S
Drug resistance of clinical isolate (Y198; strain Y198): R

NNC(=O)c1ccncc1 [INH, isoniazid]
Drug resistance of clinical isolate (Y17; strain Y17): R
Drug resistance of clinical isolate (Y48; strain Y48): R
Drug resistance of clinical isolate (Y198; strain Y198): R

[H]/N=C(/N)N[C@H]1[C@H](O)[C@@H](O)[C@H](O[C@@H]2O[C@@H](C)[C@](O)(C=O)[C@H]2O[C@@H]2O[C@@H](CO)[C@H](O)[C@@H](O)[C@@H]2NC)[C@@H](N/C(N)=N\[H])[C@@H]1O [SM, streptomycin]
Drug resistance of clinical isolate (Y198; strain Y198): R

COc1ncnc(Cn2cc(C(=O)NCCO)c3ncc(C)cc32)c1C [TBA-7371, reference compound]
Amino-acid substitution (DprE1): Tyr→His

CO[C@H]1/C=C/O[C@@]2(C)Oc3c(C)c(O)c4c(O)c(c(/C=N/N5CCN(C6CCCC6)CC5)c(O)c4c3C2=O)NC(=O)/C(C)=C\C=C\[C@H](C)[C@H](O)[C@@H](C)[C@@H](O)[C@@H](C)[C@H](OC(C)=O)[C@@H]1C [RFT, rifapentine]
Drug resistance of clinical isolate (Y198; strain Y198): R

CO[C@H]1/C=C/O[C@@]2(C)Oc3c(C)c(O)c4c(c3C2=O)C2=NC3(CCN(CC(C)C)CC3)NC2=C(NC(=O)/C(C)=C\C=C\[C@H](C)[C@H](O)[C@@H](C)[C@@H](O)[C@@H](C)[C@H](OC(C)=O)[C@@H]1C)C4=O [RFB, rifabutin]
Drug resistance of clinical isolate (Y198; strain Y198): R

CO[C@H]1/C=C/O[C@@]2(C)Oc3c(C)c(O)c4c(O)c(c(/C=N/N5CCN(C)CC5)c(O)c4c3C2=O)NC(=O)/C(C)=C\C=C\[C@H](C)[C@H](O)[C@@H](C)[C@@H](O)[C@@H](C)[C@H](OC(C)=O)[C@@H]1C [RMP, rifampicin]
Drug resistance of clinical isolate (Y17): R
Drug resistance of clinical isolate (Y48): R
Drug resistance of clinical isolate (Y198): R

CC[C@@H](CO)NCCN[C@@H](CC)CO [EMB, ethambutol]
Drug resistance of clinical isolate (Y48; strain Y48): R
Drug resistance of clinical isolate (Y198; strain Y198): R

NC(=O)c1cnccn1 [PZA, pyrazinamide]
Drug resistance of clinical isolate (Y198; strain Y198): R

Cc1nc(C)c(CN2CCOc3c(C(=O)NCC(F)(F)F)cc(C4CC4)cc32)nc1C [B18, 6-cyclopropyl-N-(2,2,2-trifluoroethyl)-4-((3,5,6-trimethylpyrazin-2-yl)methyl)-3,4-dihydro-2H-benzo[b][1,4]oxazine-8-carboxamide]
Amino-acid substitution (DprE1): Tyr→His
